ChEMBL document CHEMBL1154628, “Discovery and optimization of substituted 1-(1-phenyl-1H-pyrazol-3-yl)methanamines as potent and efficacious type II calcimimetics” (J Med Chem, 2009)
The source made the active and inactive calls. The calls are words filed in the database; no cut-off is given here.

Assays:
Rattus norvegicus [1] = assay: AUC in Sprague-Dawley rat at 2 mg/kg, po; type: ADME, organism-based, Plasma; design: dose 2 mg/kg, route oral; details: in vivo
Rattus norvegicus [2] = assay: Oral bioavailability in Sprague-Dawley rat at 2 mg/kg; type: ADME, organism-based; details: in vivo
Rattus norvegicus [3] = assay: Inhibition of hyperparathyroidism in Sprague-Dawley rat pharmacodynamic model assessed as PTH levels at 3 mg/kg, po; type: functional
[4] = molecular target: T1, Extracellular calcium-sensing receptor (Homo sapiens, UniProt P41180); assay: Activity at human CaSR expressed in HEK293 cells assessed as calcium release by FLIPR assay; type: functional, cell-based
T1 sequence (P41180 whole entry): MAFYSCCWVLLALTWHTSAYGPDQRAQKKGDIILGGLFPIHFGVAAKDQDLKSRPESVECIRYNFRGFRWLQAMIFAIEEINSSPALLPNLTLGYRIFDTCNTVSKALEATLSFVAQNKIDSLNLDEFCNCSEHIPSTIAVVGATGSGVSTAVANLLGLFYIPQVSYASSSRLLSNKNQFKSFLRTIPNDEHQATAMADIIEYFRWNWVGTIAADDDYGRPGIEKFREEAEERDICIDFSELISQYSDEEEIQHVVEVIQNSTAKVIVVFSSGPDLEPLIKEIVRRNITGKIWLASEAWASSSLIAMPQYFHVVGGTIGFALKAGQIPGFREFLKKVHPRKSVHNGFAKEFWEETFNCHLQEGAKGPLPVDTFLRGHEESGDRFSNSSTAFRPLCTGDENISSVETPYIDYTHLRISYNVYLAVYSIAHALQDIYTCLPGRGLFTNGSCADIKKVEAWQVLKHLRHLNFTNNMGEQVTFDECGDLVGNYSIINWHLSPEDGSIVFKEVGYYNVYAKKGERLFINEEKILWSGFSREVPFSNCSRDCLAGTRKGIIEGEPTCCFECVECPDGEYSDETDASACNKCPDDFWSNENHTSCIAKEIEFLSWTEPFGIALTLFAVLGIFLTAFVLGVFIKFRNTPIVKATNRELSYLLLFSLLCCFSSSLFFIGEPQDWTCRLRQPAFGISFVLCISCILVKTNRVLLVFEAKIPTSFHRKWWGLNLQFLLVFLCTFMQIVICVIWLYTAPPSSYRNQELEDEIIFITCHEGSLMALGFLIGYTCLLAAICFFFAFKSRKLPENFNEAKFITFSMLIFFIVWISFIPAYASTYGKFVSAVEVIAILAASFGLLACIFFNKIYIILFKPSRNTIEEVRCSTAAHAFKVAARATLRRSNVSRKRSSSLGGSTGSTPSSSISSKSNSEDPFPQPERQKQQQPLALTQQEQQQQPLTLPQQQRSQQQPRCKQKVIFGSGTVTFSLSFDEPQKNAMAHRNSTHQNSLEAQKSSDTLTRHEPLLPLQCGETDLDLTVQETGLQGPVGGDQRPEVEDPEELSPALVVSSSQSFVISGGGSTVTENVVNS

Rattus norvegicus [5] = assay: Clearance in Sprague-Dawley rat at 0.5 mg/kg, iv; type: ADME, organism-based; design: dose 0.5 mg/kg, route intravenous; details: in vivo
[6] = Mean residence time in Sprague-Dawley rat at 0.5 mg/kg, iv; type: ADME, organism-based; design: dose 0.5 mg/kg, route intravenous; details: in vivo
[7] = Volume of distribution at steady state in Sprague-Dawley rat at 0.5 mg/kg, iv; type: ADME, organism-based; design: dose 0.5 mg/kg, route intravenous; details: in vivo, read-out: Vdss
Rattus norvegicus [8] = assay: Inhibition of hyperparathyroidism in Sprague-Dawley rat pharmacodynamic model assessed as decrease in PTH levels at 30 mg/kg, po; type: functional, organism-based; design: dose 30 mg/kg; details: Thyroid gland
Rattus norvegicus [9] = assay: Cmax in Sprague-Dawley rat at 2 mg/kg, po; type: ADME, organism-based; design: dose 2 mg/kg, route oral; details: in vivo

Structure (SMILES)	EC50 [4] [nM]	also measured
COc1cc([C@@H](C)N[C@H](C)c2ccccc2)nn1-c1ccc(C(F)(F)F)cc1	70	–
COc1cc([C@@H](C)N[C@H](C)c2cccc(Cl)c2)nn1-c1ccc(C(=O)O)cc1	1920	–
C[C@@H](NCc1cnc(-c2ccccc2)s1)c1ccccc1	> 5000	–
COc1cc([C@@H](C)N[C@H](C)c2cccc(Cl)c2)nn1-c1cccc(Cl)c1	57	–
C[C@@H](N[C@H](C)c1ccn(-c2ccc(C(F)(F)F)cc2)n1)c1cccc(F)c1	148	–
C[C@@H](NCc1nc(-c2ccccc2)cn1C)c1ccccc1	> 5000	–
CC(C)[C@@H](N[C@H](C)c1ccccc1)c1ccn(-c2ccc(C(F)(F)F)cc2)n1	2340	–
CC[C@@H](N[C@H](C)c1ccccc1)c1ccn(-c2ccc(C(F)(F)F)cc2)n1	1180	–
COc1cccc([C@@H](C)NCCCc2ccccc2Cl)c1 [TECALCET]	194	AUC (Rattus norvegicus [1]): 22 ng·h/mL; Activity (Rattus norvegicus [8]): Active; Cmax (Rattus norvegicus [9]): 4.2 ng/mL; F (Rattus norvegicus [2]): 5%; CL (Rattus norvegicus [5]): 65 mL/min/kg; MRT [6]: 1.74 h; Vd [7]: 6.8 L/kg

Now from value to compound, other results behind:

EC50 [4] [nM]	Structure (SMILES)	also measured
23	COc1cc([C@@H](C)N[C@H](C)c2cccc(Cl)c2)nn1-c1ccc(Br)cc1	AUC (Rattus norvegicus [1]): 444 ng·h/mL; F (Rattus norvegicus [2]): 24%; Activity (Rattus norvegicus [3]): <3 pg/mL; CL (Rattus norvegicus [5]): 21.7 mL/min/kg; MRT [6]: 11.8 h; Vd [7]: 7 L/kg
> 5000	C[C@@H](NCc1nc(-c2ccccc2)cs1)c1ccccc1	–
41	COc1cc([C@@H](C)N[C@H](C)c2cccc(Cl)c2)nn1-c1ccc(C(F)(F)F)cc1	–
1580	C[C@@H](NCc1ccn(-c2ccccc2)n1)c1ccccc1	–
92	C[C@@H](N[C@H](C)c1ccn(-c2ccc(C(F)(F)F)cc2)n1)c1cccc(Cl)c1	–
> 5000	COc1cc([C@@H](C)N[C@H](C)c2cccc(Cl)c2)nn1-c1ccc(-c2nnn[nH]2)cc1	–
233	C[C@@H](N[C@H](C)c1ccn(-c2ccc(C(F)(F)F)cc2)n1)c1ccccc1	–
> 5000	C[C@@H](NCc1nc(-c2ccccc2)co1)c1ccccc1	–
> 5000	C[C@@H](NCc1nc(-c2ccccc2)c[nH]1)c1ccccc1	–
